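Assay format: 96-well plates, 48-hour exposure. GI50: concentration for 50% inhibition of growth.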 The source made the active and inactive calls. Cut-off read from the data, not from the text of the source: active = GI50 up to about 1.1 µM and inactive = higher.

Data on eleven compounds can be found in ChEMBL document CHEMBL1201862, “PubChem BioAssay data set” (2004).

Some test systems named below: Malme-3M; SF-295; SK-OV-3; M14; OVCAR-5; OVCAR-8; SF-539; HCC 2998; KM12; EKVX; NCI-H226; UO-31; TK-10; HCT-116; OVCAR-3; A549; UACC-62; HCT-15; DU-145.
Test in all cases: NCI-60 cell line screen, 48 h

Turning to `COc1ccc(NC(=O)c2cc(OC)c(OC)c(OC)c2)cc1`, the GI50 in the experiment with Malme-3M was 41.6 µM (inactive); in the experiment on SF-295, 36.1 µM (inactive); in the experiment on SK-OV-3, 49.8 µM (inactive); in the experiment with M14, 88.1 µM (inactive); with OVCAR-5 it was > 100 µM (inactive); with OVCAR-8 it was 74.6 µM (inactive). For the same compound, the GI50 is 48 µM (inactive) with SF-539; 42.2 µM (inactive) in the experiment with HCC 2998; 22.8 µM (inactive) in the experiment with KM12; > 69.2 µM (inactive) in the experiment on EKVX; > 78.3 µM (inactive) in the experiment with NCI-H226; 64.1 µM (inactive) in the experiment on UO-31. Further, the GI50 is > 100 µM (inactive) in the experiment with TK-10; 36.7 µM (inactive) with HCT-116; 39.1 µM (inactive) in the experiment with OVCAR-3; 62.1 µM (inactive) with A549; 31 µM (inactive) with UACC-62; 33.4 µM in the experiment on HCT-15.

For `COc1cc2c(cc1OC)c1c(OC)c(OC)cc3c1c1c2sc(=S)n1CC3`, the GI50 in the experiment on Malme-3M is 86.3 µM (inactive); in the experiment with SF-295, > 100 µM (inactive); in the experiment with SK-OV-3 it was > 100 µM (inactive); in the experiment with M14 it was 18.4 µM (inactive); with OVCAR-5, > 100 µM (inactive); with OVCAR-8 it was 41.8 µM (inactive). Besides, the GI50 in the experiment with SF-539 was 48.3 µM (inactive); in the experiment on HCC 2998, 53.1 µM (inactive); with KM12, 55.8 µM (inactive); in the experiment with EKVX, > 100 µM (inactive); with NCI-H226 it was > 100 µM (inactive); in the experiment on UO-31, > 100 µM (inactive). Further, the GI50 is > 100 µM (inactive) in the experiment on TK-10; 97.9 µM (inactive) in the experiment on HCT-116; 55.5 µM (inactive) in the experiment on OVCAR-3; > 100 µM (inactive) in the experiment on A549; 24.4 µM (inactive) with UACC-62; 42.3 µM with HCT-15.

As to `CC1=C(C(=O)NCc2ccccc2)C(c2ccccc2O)C(C(=O)NCc2ccccc2)=C(C)N1`, the GI50 is 15.7 µM (inactive) with Malme-3M; 21.1 µM (inactive) in the experiment with SF-295; 26.1 µM (inactive) in the experiment with SK-OV-3; 17.9 µM (inactive) in the experiment with M14; 18.9 µM (inactive) with OVCAR-5; 18.7 µM (inactive) with OVCAR-8. Further, the GI50 in the experiment with SF-539 is 18.4 µM (inactive); with HCC 2998, 21 µM (inactive); with KM12 it was 16.6 µM (inactive); with EKVX, 22.2 µM (inactive); with NCI-H226, 16.6 µM (inactive); with UO-31 it was 16.7 µM (inactive). The GI50 was 17.9 µM (inactive) in the experiment with TK-10; 14.4 µM (inactive) in the experiment on HCT-116; 17.4 µM (inactive) in the experiment on OVCAR-3; 20.8 µM (inactive) in the experiment with A549; 16.1 µM (inactive) with UACC-62; 13.6 µM in the experiment with HCT-15.

With `Cc1cn(C2CC(N(O)C(N)=O)C(CO)O2)c(=O)[nH]c1=O` (stereo unspecified), the GI50 with Malme-3M, with SF-295, with SK-OV-3, with M14, in the experiment with OVCAR-5 and in the experiment with OVCAR-8 was > 100 µM (inactive) throughout. Also, the GI50 with SF-539, in the experiment on DU-145, with KM12, in the experiment with UO-31, in the experiment on TK-10 and in the experiment with HCT-116 was > 100 µM (inactive) each time. Also, the GI50 in the experiment on OVCAR-3 is > 100 µM (inactive); in the experiment with A549 it was > 100 µM (inactive); in the experiment with UACC-62, > 100 µM (inactive); with HCT-15, > 100 µM.

For the compound `C#CC1/C(=C\C(=O)OC)CCCC1O` (stereo unspecified), the GI50 in the experiment on Malme-3M, in the experiment on SF-295, in the experiment with SK-OV-3, in the experiment on M14, in the experiment with OVCAR-5 and with OVCAR-8 was > 100 µM (inactive) each time. For the same compound, the GI50 in the experiment on SF-539, in the experiment on HCC 2998, in the experiment on KM12, in the experiment with EKVX, in the experiment with NCI-H226 and in the experiment with UO-31 was > 100 µM (inactive) throughout. The GI50 with TK-10 was > 100 µM (inactive); with HCT-116, > 100 µM (inactive); in the experiment on OVCAR-3, > 100 µM (inactive); with A549 it was > 100 µM (inactive); with UACC-62, > 100 µM (inactive); with HCT-15, > 100 µM.

In the case of `OC(c1ccccc1)(c1ccccc1)c1cccnc1`, the GI50 in the experiment on Malme-3M, with SF-295, with SK-OV-3, with M14, in the experiment with OVCAR-5 and with OVCAR-8 was > 100 µM (inactive) in each case. Besides, the GI50 in the experiment on SF-539, with HCC 2998, in the experiment on KM12, in the experiment on EKVX, in the experiment on NCI-H226 and in the experiment on UO-31 was > 100 µM (inactive) throughout. Moreover, the GI50 was > 100 µM (inactive) in the experiment on TK-10; > 100 µM (inactive) in the experiment with HCT-116; > 100 µM (inactive) in the experiment on OVCAR-3; > 100 µM (inactive) in the experiment with A549; > 100 µM (inactive) with UACC-62; > 100 µM in the experiment with HCT-15.

Take `O=[N+]([O-])C(/C=N/Nc1ccccc1)/C=N/Nc1ccccc1`: the GI50 in the experiment with Malme-3M, in the experiment on SF-295, in the experiment with SK-OV-3, with M14, in the experiment with OVCAR-5 and with OVCAR-8 was > 100 µM (inactive) throughout. For the same compound, the GI50 in the experiment on SF-539, in the experiment on HCC 2998, in the experiment with KM12, in the experiment with EKVX, in the experiment with NCI-H226 and in the experiment on UO-31 was > 100 µM (inactive) each time. For the same compound, the GI50 in the experiment on TK-10 is > 100 µM (inactive); in the experiment on HCT-116, > 100 µM (inactive); with OVCAR-3 it was > 100 µM (inactive); in the experiment with A549 it was > 100 µM (inactive); in the experiment on UACC-62, > 100 µM (inactive); in the experiment on HCT-15, > 100 µM.

As for `Cc1ccc(S(=O)OCc2c(C)c(C)c(COS(=O)c3ccc(C)cc3)c(C)c2C)cc1` (stereo unspecified), the GI50 in the experiment on Malme-3M, in the experiment on SF-295, in the experiment with SK-OV-3, in the experiment with M14, with OVCAR-5 and in the experiment with OVCAR-8 was > 100 µM (inactive) throughout. Also, the GI50 in the experiment on SF-539, with HCC 2998, with KM12, with EKVX, with NCI-H226 and in the experiment on UO-31 was > 100 µM (inactive) throughout. Further, the GI50 was > 100 µM (inactive) in the experiment with TK-10; > 100 µM (inactive) in the experiment with HCT-116; > 100 µM (inactive) with OVCAR-3; > 100 µM (inactive) in the experiment on A549; > 100 µM (inactive) in the experiment with UACC-62; > 100 µM in the experiment with HCT-15.

Take `COC(=O)C1=C(C)NC(=S)NC1c1ccc(N(CCCl)CCCl)cc1Cl` (stereo unspecified): the GI50 in the experiment with Malme-3M is 3.04 µM (inactive); in the experiment on SF-295 it was 19.4 µM (inactive); in the experiment on SK-OV-3, > 100 µM (inactive); in the experiment on M14, 32.5 µM (inactive); in the experiment with OVCAR-5, 56.5 µM (inactive); in the experiment on OVCAR-8, 31 µM (inactive). Besides, the GI50 in the experiment on SF-539 was > 72.6 µM (inactive); in the experiment with DU-145, 12.4 µM (inactive); with KM12, 19.6 µM (inactive); in the experiment on EKVX it was 2.11 µM (inactive); with NCI-H226, 3.56 µM (inactive); in the experiment with UO-31, 35.8 µM (inactive). For the same compound, the GI50 in the experiment with TK-10 was 32.4 µM (inactive); with HCT-116 it was 34 µM (inactive); with OVCAR-3, 22.6 µM (inactive); in the experiment with A549 it was 8.2 µM (inactive); with UACC-62 it was 3.05 µM (inactive); in the experiment on HCT-15 it was 9.91 µM.

Take `C[P+](C)(CC(F)(F)F)c1ccccc1`: the GI50 with Malme-3M, in the experiment on SF-295, in the experiment with SK-OV-3, in the experiment with M14, in the experiment on OVCAR-5 and in the experiment on OVCAR-8 was > 100 µM (inactive) each time. Also, the GI50 with SF-539, with HCC 2998, with KM12, in the experiment on EKVX, with NCI-H226 and with UO-31 was > 100 µM (inactive) throughout. Moreover, the GI50 in the experiment with TK-10 was > 100 µM (inactive); in the experiment on HCT-116 it was > 100 µM (inactive); in the experiment on OVCAR-3 it was > 100 µM (inactive); with A549 it was > 100 µM (inactive); in the experiment on UACC-62 it was > 100 µM (inactive); with HCT-15 it was > 100 µM.

Take `O=S(=O)(/N=c1\[nH]c(-c2cc(O)c(O)c(O)c2)cs1)c1ccc(Cl)cc1Cl`: the GI50 in the experiment with Malme-3M is 21.8 µM (inactive); in the experiment on SF-295 it was 17.2 µM (inactive); in the experiment with SK-OV-3, 72.6 µM (inactive); in the experiment with M14, 22.1 µM (inactive); in the experiment with OVCAR-5 it was 18.2 µM (inactive); in the experiment on OVCAR-8, 0.034 µM (active). Besides, the GI50 in the experiment with SF-539 is 27.6 µM (inactive); in the experiment on DU-145 it was 20.3 µM (inactive); in the experiment with KM12 it was 15.2 µM (inactive); in the experiment with EKVX it was 18.1 µM (inactive); in the experiment on NCI-H226, 50.4 µM (inactive); in the experiment on UO-31 it was 20.4 µM (inactive). Also, the GI50 in the experiment with TK-10 is 4.65 µM (inactive); in the experiment on HCT-116, 19 µM (inactive); in the experiment with OVCAR-3, 17.4 µM (inactive); in the experiment with A549, 31.9 µM (inactive); in the experiment with UACC-62, > 100 µM (inactive); with HCT-15, 17.2 µM.
